Assay results: ChEMBL document CHEMBL1201862, “PubChem BioAssay data set” (2004)
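The compound was tested at five concentrations on cells cultured in 96-well plates, with a 48-hour exposure period. The concentration for 50% growth inhibition is given as GI50.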 Activity calls are given as the source filed them. Cut-off read from the data, not from the text of the source: active = GI50 up to about 1.1 µM and inactive = higher.

Legend:
Assay in all cases: inhibition of tumour cell growth, NCI panel, 48 h
[1] = tested on: A498
[2] = tested on: A549
[3] = tested on: CCRF-CEM
[4] = tested on: DMS-114
[5] = tested on: EKVX
[6] = tested on: HCT-116
[7] = tested on: HCT-15
[8] = tested on: HOP-92
[9] = tested on: HT-29
[10] = tested on: NCI-H23
[11] = tested on: NCI-H522
[12] = tested on: OVCAR-8
[13] = tested on: RXF 393
[14] = tested on: SF-295
[15] = tested on: SF-539
[16] = tested on: SK-MEL-2
[17] = tested on: TK-10
[18] = tested on: DU-145
[19] = tested on: MDA-MB-231
[20] = tested on: NCI/ADR-RES

Row | Compound | GI50 [1] | GI50 [2] | GI50 [3] | GI50 [4] | GI50 [5] | GI50 [6] | GI50 [7] [µM] | GI50 [8] | GI50 [9] | GI50 [10] | GI50 [11] | GI50 [12] | GI50 [13] | GI50 [14] | GI50 [15] | GI50 [16] | GI50 [17] | GI50 [18] | GI50 [19] | GI50 [20]
1 | CSC(=N)N1N=C2c3ccccc3CC[C@@H]2[C@@H]1c1ccccc1 | 16.7 µM (inactive) | 17.6 µM (inactive) | 19.3 µM (inactive) | 13.3 µM (inactive) | 17.5 µM (inactive) | 4.8 µM (inactive) | 15.7 | 5.16 µM (inactive) | 10.3 µM (inactive) | 15.2 µM (inactive) | 14.2 µM (inactive) | 15 µM (inactive) | 13.9 µM (inactive) | 14.4 µM (inactive) | 13.9 µM (inactive) | 14.6 µM (inactive) | 17 µM (inactive) |  |  | 
2 | CCCCCC(=O)N[C@H]1CCc2cc(O)c(O)c(O)c2-c2ccc(SC)c(=O)cc21 | 29 µM (inactive) | 36.7 µM (inactive) | 23.2 µM (inactive) | 15.5 µM (inactive) | > 63.1 µM (inactive) | 18.8 µM (inactive) | 22.5 | 25.7 µM (inactive) | 32.7 µM (inactive) | 21.6 µM (inactive) | 15.1 µM (inactive) | 26.1 µM (inactive) | 38.9 µM (inactive) | 23.4 µM (inactive) | 20.9 µM (inactive) | 33 µM (inactive) | > 100 µM (inactive) |  |  | 
3 | Cc1ccc(NC(=O)C2C3CCC(O3)C2C(=O)O)cc1 (centres undefined) | > 45.1 µM (inactive) | > 76.2 µM (inactive) | > 44.8 µM (inactive) | 33.3 µM (inactive) | > 94.4 µM (inactive) | > 39 µM (inactive) | > 44.9 | 36.1 µM (inactive) | > 45 µM (inactive) | > 100 µM (inactive) | 43.6 µM (inactive) | > 100 µM (inactive) | 15.8 µM (inactive) | > 95.9 µM (inactive) | > 57.7 µM (inactive) | 64.9 µM (inactive) | > 100 µM (inactive) |  |  | 
4 | COc1nc(OC)nc(Sc2ccc(Sc3ccc(Sc4nc(OC)nc(OC)n4)cc3)cc2)n1 | > 100 µM (inactive) | > 100 µM (inactive) | > 100 µM (inactive) | 24.1 µM (inactive) | > 100 µM (inactive) | > 100 µM (inactive) | > 100 | > 100 µM (inactive) | > 100 µM (inactive) | > 100 µM (inactive) | > 100 µM (inactive) | > 100 µM (inactive) | > 100 µM (inactive) | > 100 µM (inactive) | > 100 µM (inactive) | > 100 µM (inactive) | > 100 µM (inactive) |  |  | 
5 | O=C(Nc1cccc(O)c1)C(=O)C(C(=O)c1ccc(Cl)c(Cl)c1)C1OC(=O)c2ccccc21 (centres undefined) | 19.5 µM (inactive) | 37 µM (inactive) | 12.5 µM (inactive) | 12.1 µM (inactive) | 18.5 µM (inactive) | 25.7 µM (inactive) | 15.5 | 22.5 µM (inactive) | 27.4 µM (inactive) | 16.6 µM (inactive) | 9.82 µM (inactive) | 10.7 µM (inactive) | 20.9 µM (inactive) | 20.3 µM (inactive) |  | 17.5 µM (inactive) | 23.8 µM (inactive) |  |  | 
6 | C=C1C(=O)OC2C(C)C3C=CC(=O)[C@@]3(C)C(OC(=O)/C(C)=C/C)C1[C@@H]2OC(C)=O (some centres undefined) | 1.49 µM (inactive) | 1.67 µM (inactive) | 0.22 µM (active) | 0.861 µM (active) | 0.551 µM (active) | 0.319 µM (active) | 0.247 | 0.551 µM (active) | 0.486 µM (active) | 0.467 µM (active) | 0.131 µM (active) | 0.24 µM (active) | 0.215 µM (active) | 1.43 µM (inactive) | 0.333 µM (active) | 0.278 µM (active) | 0.452 µM (active) | 1.36 µM (inactive) | 259 nM (active) | 0.237 µM (active)
7 | COC(=O)C(=O)C(C(=O)C(=O)Nc1ccc([N+](=O)[O-])cc1)c1nc2ccccc2nc1O (centres undefined) | > 100 µM (inactive) | > 100 µM (inactive) | > 100 µM (inactive) | > 100 µM (inactive) |  | > 100 µM (inactive) | 15 | > 100 µM (inactive) | 81.5 µM (inactive) | > 100 µM (inactive) | > 100 µM (inactive) | > 100 µM (inactive) | > 100 µM (inactive) |  |  | > 100 µM (inactive) | > 100 µM (inactive) |  |  | 
8 | C=C1CC(CCCl)(c2ccccc2)OC1=O (centres undefined) | > 100 µM (inactive) | > 71.9 µM (inactive) | 20 µM (inactive) | 37.9 µM (inactive) | > 44 µM (inactive) | 22.9 µM (inactive) | 19.7 | 15.7 µM (inactive) | 33 µM (inactive) | > 100 µM (inactive) | 18.5 µM (inactive) | 41.1 µM (inactive) | 13.3 µM (inactive) | > 100 µM (inactive) | 27.9 µM (inactive) | > 57.5 µM (inactive) | > 47.5 µM (inactive) |  |  | 
9 | CCC(CO)COC(=O)/C=C/C(=O)OCC(CC)CO (centres undefined) | > 100 µM (inactive) | > 100 µM (inactive) | 27.4 µM (inactive) | > 100 µM (inactive) | > 55.5 µM (inactive) | > 74.3 µM (inactive) | > 73.3 | > 81.8 µM (inactive) | > 91 µM (inactive) | > 84.7 µM (inactive) | > 61.5 µM (inactive) | > 76.2 µM (inactive) | > 65.3 µM (inactive) | > 100 µM (inactive) | > 100 µM (inactive) | > 100 µM (inactive) | > 100 µM (inactive) |  |  | 
10 | COc1c(OC2OC(CO)C(O)C(O)C2O)cc2c(c1OC)-c1ccc(OC)c(=O)cc1C(NC(C)=O)CC2 (centres undefined) | > 100 µM (inactive) | > 100 µM (inactive) | > 100 µM (inactive) | 35.7 µM (inactive) | > 100 µM (inactive) | > 100 µM (inactive) | > 100 | 44.6 µM (inactive) | > 100 µM (inactive) | > 100 µM (inactive) | > 100 µM (inactive) | > 100 µM (inactive) | > 83.6 µM (inactive) | > 87.3 µM (inactive) | > 100 µM (inactive) | 57.8 µM (inactive) | > 100 µM (inactive) |  |  | 
11 | C=CCCCC(C#N)(c1ccccc1)N1CCCC1 (centres undefined) | > 100 µM (inactive) | > 100 µM (inactive) | > 100 µM (inactive) | > 100 µM (inactive) | > 100 µM (inactive) | > 100 µM (inactive) | > 100 | > 100 µM (inactive) | > 100 µM (inactive) | > 100 µM (inactive) | > 100 µM (inactive) | > 100 µM (inactive) | > 100 µM (inactive) | > 100 µM (inactive) | > 100 µM (inactive) | > 100 µM (inactive) | > 100 µM (inactive) |  |  | 
12 | CN1CCN(CCn2c3c4ccccc4ccc3c3oc(=O)c4ccccc4c32)CC1 | 5.09 µM (inactive) | 3.97 µM (inactive) | 1.56 µM (inactive) | 1.95 µM (inactive) | 12.7 µM (inactive) | 1.88 µM (inactive) | 2.72 | 5.85 µM (inactive) | 1.36 µM (inactive) | 5.83 µM (inactive) | 4.55 µM (inactive) | 1.52 µM (inactive) |  | 4.21 µM (inactive) | 1.65 µM (inactive) | 13.5 µM (inactive) | 10.5 µM (inactive) | > 10 µM (inactive) | 1800 nM (inactive) | 6.87 µM (inactive)
13 | COc1c(OC)c(N)c2cc(C)c(=O)c(C)cc2c1N | > 100 µM (inactive) | > 100 µM (inactive) | 41.9 µM (inactive) | 50.9 µM (inactive) | > 100 µM (inactive) | 97.1 µM (inactive) | 99.8 | > 100 µM (inactive) | > 100 µM (inactive) | > 100 µM (inactive) | 96.8 µM (inactive) | > 100 µM (inactive) | > 100 µM (inactive) | > 100 µM (inactive) | > 100 µM (inactive) | > 100 µM (inactive) | > 100 µM (inactive) |  |  | 
14 | C[C@@H](CO)OCOCc1ccccc1 | > 100 µM (inactive) | > 100 µM (inactive) | > 100 µM (inactive) | > 100 µM (inactive) |  | > 100 µM (inactive) | > 100 | > 100 µM (inactive) | > 100 µM (inactive) | > 100 µM (inactive) | > 100 µM (inactive) |  | > 100 µM (inactive) | > 100 µM (inactive) | > 100 µM (inactive) | > 100 µM (inactive) |  |  |  | 
15 | N#CC(C#N)=C1NC(=O)CC(=O)N1 | > 100 µM (inactive) | > 100 µM (inactive) | > 100 µM (inactive) | > 100 µM (inactive) | > 100 µM (inactive) | > 100 µM (inactive) | > 100 | > 100 µM (inactive) | > 100 µM (inactive) | > 100 µM (inactive) | > 100 µM (inactive) | > 100 µM (inactive) | > 100 µM (inactive) | > 100 µM (inactive) | > 100 µM (inactive) |  | > 100 µM (inactive) |  |  | 
16 | NNC(=O)N/N=C1\CNC(=O)C(=O)C1c1nc2ccccc2s1 (centres undefined) | > 100 µM (inactive) | > 100 µM (inactive) | > 100 µM (inactive) | > 100 µM (inactive) | > 100 µM (inactive) | > 100 µM (inactive) | > 100 | > 100 µM (inactive) | > 100 µM (inactive) | > 100 µM (inactive) | > 100 µM (inactive) | > 100 µM (inactive) | > 100 µM (inactive) | > 100 µM (inactive) | > 100 µM (inactive) | > 100 µM (inactive) | > 100 µM (inactive) |  |  | 
